The values that follow are results of earlier work, collected in US20220370613A1, “PHARMACEUTICAL COMPOSITION” (Renown Pharma Inc., priority 2019, published 2022).

For data set [1], the system named is "on-off" fluctuations in Parkinson's disease. Particulars: subcutaneous injection.
A further data set has as its system "switched on" response. Particulars: sublingual administration.

What is called pKa is the negative logarithm of the acid dissociation constant. For `CN1CCc2cccc3c2[C@H]1Cc1ccc(O)c(O)c1-3` [apomorphine], the pKa is reported as 8.9. In data set [1], the duration of effect is 45 to 90 min and the time to effect was 5 to 15 min. Moreover, the “mean time to onset of effect” value in the data set on "switched on" response is “approximately 30 minutes”.
